Measured values as given in patent US20240269066A1, “USE OF CYP450 INHIBITOR IN INHIBITING OR KILLING MITES AND TREATING XEROPHTHALMIA” (PRECVISION BIOTECHNOLOGIES LTD., priority 2021, published 2024).
Counter-ions that a name gives are not always drawn.

Tested on: Demodex
Assay: Acaricidal experiment: in vitro culture of Demodex with compound solutions, time to death of mites
Conditions: 50 μl, 20° C., 96% humidity
Procedure: In this study, Demodex was collected from patients diagnosed with ocular Demodex infection. Those meeting the inclusion criteria would be enrolled after an informed conversation and signing an informed consent form.
Demodex detection was performed according to the conventional eyelash microscopic examination method. 3 eyelashes were extracted from each eyelid, and a total of 12 eyelashes were extracted. The extracted eyelashes were immediately placed on a glass slide, and one piece of each three eyelashes was placed under an ordinary light microscope for observation. Demodex at all stages were counted and classified according to morphology (specific criteria were: Demodex brevis at a head-to-body ratio of 1:1 and Demodex folliculorum at a head-to-body ratio of 1:3 to 1:4). Only adults that were fully exposed to the field of view were taken as subjects (larvae and eggs were not considered as subjects since they were more fragile in early life).
Based on the above detection of Demodex, 50 μl of different solutions were added to each slide, and the survival of the worms was observed every 1 hour. The death was judged by observing whether the worms were active (body, limbs, or the like) under a microscope. Two skilled Demodex-related experimenters observed and judged separately during the experiment. If the judgment results were different, the third skilled experimenter was asked to make an independent judgment. The culture in vitro was performed in a climate chamber at 20° C. and 96% humidity. Slides were transported in a humid chamber under observation and the solution was added appropriately to ensure high humidity before vacuoles appeared on solution evaporation.

Row | Compound | Average survival time of mites (compound 10 mg/mL in 0.9% NaCl) | also measured
1 | C=C[C@H]1C[N@@]2CC[C@H]1C[C@@H]2[C@@H](O)c1ccnc2ccc(OC)cc12 [Quinidine sulfate] | 5 h | Average survival time of mites (compound 1 mg/mL in 0.9% NaCl): 8.33 ± 4.02 h; Average survival time of mites (compound 5 mg/mL in 0.9% NaCl): 5.35 ± 2.09 h
2 | Cc1cc(O)c(C(=O)CCC(C)C)c(=O)o1 [Pogostone] | 1.90 ± 1.06 h | –
3 | CC(C)(O)c1ccccc1CC[C@@H](SCC1(CC(=O)O)CC1)c1cccc(/C=C/c2ccc3ccc(Cl)cc3n2)c1 [Montelukast Sodium] | 5 h | –
4 | C[C@@H](c1ncncc1F)[C@](O)(Cn1cncn1)c1ccc(F)cc1F [Voriconazole] | 72 h | –
5 | CN/C(=N/CCSCc1nc[nH]c1C)NC#N [Cimetidine] | 53 h | –
6 | COc1cc(/C=C/C(=O)CC(=O)/C=C/c2ccc(O)c(OC)c2)ccc1O [Curcumin] | 45 h | –
7 | C[C@@H]1CC[C@H]2C(C)(C)[C@H]3C[C@@]12CC[C@@]3(C)O [Cedrol] | <20.04 ± 1.84 h | –
8 | Nc1ccc(S(=O)(=O)Nc2ccnn2-c2ccccc2)cc1 [Sulfaphenazole] | 70 h | –
9 | Cc1ncc([N+](=O)[O-])n1CCO [Metronidazole] | 67 h | –
10 | CN[C@H]1CC[C@@H](c2ccc(Cl)c(Cl)c2)c2ccccc21 [Sertraline HCl] | 2.50 ± 1.37 h | Average survival time of mites (compound 1 mg/mL in 0.9% NaCl): 9.07 ± 6.72 h
11 | COc1cc(N)c(Cl)cc1C(=O)NC1CCN(CCCOc2ccc(F)cc2)CC1OC (stereo not drawn) [Cisapride] | 72 h | –
12 | Cc1ccccc1C(OCCN(C)C)c1ccccc1 (stereo not drawn) [Orphenadrine Citrate] | 4.35 ± 2.05 h | Average survival time of mites (compound 1 mg/mL in 0.9% NaCl): ~7.09 ± 1.44 h
13 | O=c1c(O)c(-c2ccc(O)c(O)c2)oc2cc(O)cc(O)c12 [Quercetin] | 4 h | –
14 | CO[C@@H]1[C@H](N(C)C(=O)c2ccccc2)C[C@H]2O[C@]1(C)n1c3ccccc3c3c4c(c5c6ccccc6n2c5c31)C(=O)NC4 [Midostaurin] | 42 h | –
15 | CCC(C)n1ncn(-c2ccc(N3CCN(c4ccc(OCC5COC(Cn6cncn6)(c6ccc(Cl)cc6Cl)O5)cc4)CC3)cc2)c1=O (stereo not drawn) [Itraconazole] | 96 h | –
16 | COc1c2occc2cc2ccc(=O)oc12 [Methoxsalen] | 18 h | –
17 | Clc1ccccc1C(c1ccccc1)(c1ccccc1)n1ccnc1 [Clotrimazole] | – | Average survival time of mites (compound 0.3 mg/mL in 0.9% NaCl): ~33.01 h; Average survival time of mites (compound 3 mg/mL in 0.9% NaCl): ~23.63 h
18 | N#Cc1ccc(C(c2ccc(C#N)cc2)n2cncn2)cc1 [Letrozole] | 72 h | –
19 | COC(=O)[C@H](c1ccccc1Cl)N1CCc2sccc2C1 [Clopidogrel Bisulfate] | 23 h | –
20 | S=P(N1CC1)(N1CC1)N1CC1 [Thiotepa] | 22 h | –
21 | CC(=O)N1CCN(c2ccc(OCC3COC(Cn4ccnc4)(c4ccc(Cl)cc4Cl)O3)cc2)CC1 (stereo not drawn) [Ketoconazole] | 97 h | –
22 | CCOC(=O)C1=C(C)NC(C)=C(C(=O)OC)C1c1cccc(Cl)c1Cl (stereo not drawn) [Felodipine] | 71 h | –
23 | alpha-bisabolol | 7.60 ± 2.60 h | –
24 | CC12CC3CC(C)(C1)CC(N)(C3)C2 [Memantine HCl] | 17 h | –
25 | Fc1ccc([C@@H]2CCNC[C@H]2COc2ccc3c(c2)OCO3)cc1 [Paroxetine] | – | Average survival time of mites (compound 1 mg/mL in 0.9% NaCl): 2.44 ± 2.04 h
26 | N[C@@H]1C[C@H]1c1ccccc1 [Tranylcypromine HCl] | 2.89 ± 1.08 h | Average survival time of mites (compound 1 mg/mL in 0.9% NaCl): 7.44 ± 6.07 h; Average survival time of mites (compound 3 mg/mL in 0.9% NaCl): 5.66 ± 0.91 h; Average survival time of mites (compound 30 mg/mL in 0.9% NaCl): 2.24 ± 1.32 h
27 | CCc1ccc(C)c2ccc(C)c-2c1 [Chamazulene] | 11.49 ± 3.93 h | –
28 | C=C1CC[C@@]23C[C@@H]1C(C)(C)[C@@H]2CC[C@H]3C [β-cedrene] | 42.57 ± 8.89 h | –
